Data: patent US11730689B2, “Process for treating hair” (Davines S.p.A., priority 2018, dated 2023)

Tests used:
[1] = Protection of hair from bleaching treatment (Example 4), sensorial analysis; details: 3.5 g of a 12% water solution added to bleaching powder + Activator 40 vol. mixture; 30 minutes, treatment done twice
Method: The following specific compositions were separately added to the mixture:
a) 3.5 g of a 12% Liposol maleate (Sabinsa Corporation) water solution;
b) 3.5 g of a 12% On Protection (7% Liposol maleate and 13% maleic) water solution;
e) 3.5 g of a 12% Olaplex® Bond Multiplier No 1 water solution;
The swatches were left on for 30 minutes at room temperature wrapped in an aluminum foil.
After that, the swatches were rinsed using cold running water and carefully washed using Davines SOLU shampoo of the Essential Hair Care line.
After the left on period, the swatches were rinsed using cold running water for removing the mixture and further treated with Davines SOLU shampoo of the Essential Hair Care line.
Then, 2.5 g of the conditioner MOMO of the Essential Hair Care line are applied; left on for one minute and subsequently rinsed using cold running water.
Finally, the swatches were towel dried, dried with an airdryer and combed using a fine-tooth comb.

[2] = Reducing treatment: hair conditioning (Example 9), evaluation by skilled technicians; parameters: species or system human; details: 5 g of 2% water solution (On Protection: 10% in method, 2% in results), 2 x 7.30 minutes after reducing treatment; 5 washings
Method: The coloring formulation was applied mixed with Davines Activator 20 vol., hydrogen peroxide emulsion, according to the Davines operating manual, in a 1:1.5 ratio.
The color was carefully applied in a quantity sufficient to color all the fibers of the swatches, then left on for 35 minutes at room temperature.
After that, the swatches were carefully rinsed with SOLU shampoo of the Essential Hair Care Davines line, in order to eliminate the excess color.
5 grams per swatch of the reducing formulation Davines Balance Curling System #1 are applied on the wet and towel dried swatches, and left on for 30 minutes.
After the left on period, the swatches are washed with water and ready to be treated with:
1) 5 g of maleic 2% water solution,
2) 5 g Liposol Maleate (Sabinsa Corporation) 2% water solution,
3) 5 g Olaplex® Bond Multiplier No 1, 2% water solution,
All the swatches are left on at room temperature for 7.30 minutes.
This treatment is repeated without rinsing, directly on the swatches, for 7.30 minutes (overall 15 minutes).
After the left on time, the swatches are rinsed with running water to eliminate the excess product.
(§1) Then, the swatches are carefully washed with a Sodium Laureth-2 sulfate (Zetesol Les 2/SL®) 15% and to a pH of 7.5. […]

[3] = Color fastness to washing (Example 1): evaluation of rinsing waters; parameters: species or system human; details: 5 g of 2% water solution, 10 minutes at room temperature; rinsed 5 times with Sodium Laureth-2 Sulfate solution pH 7.5; FIG. 1; six swatches incl. non-treated
Method: The coloring formulation was applied in a quantity sufficient to color all the fibers of the swatches, then wrapped in an aluminum foil and left on for 35 minutes.
Afterwards, the swatches were rinsed with Davines SOLU shampoo of the Essential Hair Care line, directly on the previously wet swatches and rinsed for 30 seconds in order to remove the mixture.
Then, swatches are treated as follows:
5 g of 2% liposol maleate (Sabinsa Corporation) water solution,
5 g of 2% Olaplex® Bond Multiplier No 1 water solution.
A non-treated swatch is used as reference.
The specific treatments are left on hair fora period of 10 minutes at room temperature.
After 10 minutes, the swatches are rinsed 5 times with a Sodium Laureth-2 Sulfate (Zetesol Les 2/SL®) solution to pH 7.5. The rinsing procedure consists on providing 1.5 g of the surfactant solution per swatch, putting it on the swatch, and massaging for 10 seconds, then rinsing.
The rinsing treatment is carried out dipping the individual swatch for 10 times in a beaker containing 100 g water, in order to collect the rinsing water.

[4] = Sensory properties of hair treated with a reducing treatment after coloring (Example 10); details: 5 g of 2% water solution, 2 x 7.30 minutes after bleaching, coloring and reducing treatment; washed with Sodium Laureth-2 sulfate 15% pH 7.5
Method: Four swatches of level 7 natural hair, standard weight and width, are bleached two times using the Davines Mask Hair Bleaching Powder mixed with an activator, hydrogen peroxide emulsion, Davines Activator 40 vol. in a 1:2 ratio.
The above described mixture is applied on single swatches in order to obtain a homogenous distribution of the product on the hair fibers.
The swatches are covered with an aluminum foil and left on for 50 minutes at room temperature. At the end of the left on period, the swatches are rinsed and carefully washed with a shampoo of the Davines Essential Hair Care SOLU line and dried. The entire process is repeated two times until to obtain the lightening level 11 according to Davines Color Manual.
The swatches as above treated are colored with Davines Mask with Vibrachrom 10.01 mixed with Davines Activator 20 vol. in a ratio 1:1.5 as disclosed in the Davines manual.
The coloration was applied to every swatch in an amount to obtain an homogeneous distribution of the product on all the hair fibers of the single swatch.
At the end of the coloration step, after rinsing with shampoo SOLU of the Essential Hair Care line of Davines and drying, the swatches are treated with 5 g of the Davines reducing formulation called Balance Curling System #1 and left on for 30 minutes at room temperature.
Then, the swatches are rinsed with water and treated as follows: […]

[5] = Hair fastness and easy bleaching (Example 7), tensile strength test; parameters: species or system human; details: 120 minutes
Method: Four swatches of human hair, weight and length level 5, are used.
The swatches are bleached using a mixture of 20 g Davines Mask Hair Bleaching Powder and 40 g Davines Activator 20 vol. to which the following compounds are added:
b) 3.5 g 12% Liposol maleate (Sabinsa Corp.) in water,
c) 3.5 g 12% Olaplex® Bond Multiplier No 1 in water,
During the bleaching process, all the swatches are wrapped up in aluminum foil, and afterward they are left on for 120 minutes at room temperature.
After the left on period, every swatch is rinsed with abundant running water and washed with a Sodium Lauth-2 sulfate (Zetesol Les 2/SL®) 15% water solution and to a pH 7.5, and dried by combing with a large-tooth comb.
The swatches are subsequently washed until a complete removal of the product.
The Tensile Strength Test was made with a dynamometer Texture Analysis Plus (Extended Height) using pneumatic clamps.
The tensile strength of hair treated with different compositions was compared with the tensile strength of the non-bleached virgin swatch (positive reference) and the tensile strength of the swatch treated only with Davines Mask Hair Bleaching Powder without a protective agent (negative reference). Five measurements for each single 6 cm long hair, and at constant rate of 0.5 mm/sec., were made.

[6] = Reducing treatment: curl resistance to repeated washings (Example 8); details: 1.8 ml added to 100 ml Balance Curling System #1 and to 100 ml Bouclè neutralizer (maleic acid, liposol maleate as 20% solution); 40 washings with 15% Sodium laureth-2 sulfate pH 7.5
Method: 1) 100 ml Davines Balance Curling System #1,
3) 100 ml Davines Balance Curling System #1 added with 1.8 ml of a Liposol maleate 20% solution (Sabinsa Corporation),
(§2) 4) 100 ml Davines Balance Curling System #1 added with 1.8 ml of Olaplex® Bond Multiplier No 1,
The above described reducing formulations (2 ml per hair swatch) were applied and left on for 30 minutes.
After the left on period, the swatches were washed with hot running water for one minute and left 10 minutes towel dried on air without any treatment, in order to stabilize the treatment.
Five neutralizing solutions are prepared:
1) 100 ml neutralizing solution Davines Bouclè Biowaving System Extra Delicate Neutralizer hydrogen peroxide 2.1%,
3) 100 ml neutralizing solution Davines Bouclè Biowaving System Extra Delicate Neutralizer added with 1.8 ml of Liposol Maleate 20% water solution (Sabinsa Corporation),
4) 100 ml neutralizing solution Davines Bouclè Biowaving System Extra Delicate Neutralizer added with 1.8 ml Olaplex® Bond Multiplier No 1,
Every swatch is left on for 10 minutes at room temperature.
Directly on the swatches and without rinsing, the neutralizing treatment is repeated in the same way, leaving on for other 10 minutes, for total 20 minutes.
After the left on period, the formulation in excess is rinsed with running water and the curlers are dried with a drier for 30 minutes. […]

[7] = Hair resistance to reducing treatment (Example 12), tensile strength test
Method: Five level 5 natural hair swatches, weight and width standard, are washed with Essential Hair Care SOLU shampoo.
Then, the swatches are towel dried with adsorbing paper for removing excess water and subsequently enrolled on 1 cm diameter curlers.
2 ml of Davines Balance Curling System #1 perm are applied on all the curlers using a spout dispenser and left on for 30 minutes.
After that, every curler is rinsed with abundant water for 1 minute using cold running water.
Then, the swatches are neutralized using different neutralizing solutions:
2.5 g Davines Bouclè Biowaving System Extra Delicate Neutralizer (hydrogen peroxide 2.1%),
2.5 g liposol maleate (Sabinsa Corp.) 2% water solution,
2.5 g Olaplex® Bond Multiplier No 1, 10% water solution,
The swatches are left on for 7.30 minutes at room temperature.
Without rinsing, directly on the swatches, the application of the neutralizing solutions is repeated according to the same procedure for other 7.30 minutes, totally 15 minutes.
After the left on period, the excess product is rinsed with cold running water and the curlers are dried in an oven ISCO at 53° C.±1 for 4 hours.
The swatches are removed from the curlers and the curl sinuosity is evaluated using a camera.
as §1
Then, the tensile strength was evaluated. […]

[8] = Color retention after reducing treatment (Example 11), evaluation by skilled technicians; parameters: species or system human; details: added to reducing composition and to neutralizing solution (1.8 ml per 100 ml) and applied afterwards as solution in 45 ml water, 7.5 minutes
Method: Five hair samples from a human subject having a standard weight and a width and level 7 are colored with a Davines Mask with Vibrachrom 3.51. The coloring formulation was applied mixed with Davines Activator 20 vol., hydrogen peroxide emulsion, according to Davines operating manual, in a 1:1.5 ratios. The color was carefully applied in a quantity sufficient to give a homogeneous color to all fibers of the swatches. The mixture was left on for 35 minutes at room temperature.
After that, the swatches were carefully rinsed with shampoo Davines SOLU of the Essential Hair Care line, in order to eliminate the excess color.
After the left on period, the swatches were treated with the following reducing compositions:
1) 100 ml Davines Balance Curling System #1
as §2
On the wet and towel dried swatches, 5 grams of the above described reducing formulations are applied per swatch, and then left on for 30 minutes.
After the left on period, the swatches are washed with hot running water for 1 minute and left 10 minutes towel dried on air without any treatment, in order to stabilize the treatment.
Five neutralizing solutions are prepared: […]
The swatches were evaluated from skilled technicians as follows:

[9] = Hair resistance to bleaching treatment (Example 5), tensile strength test; details: 9 g (maleic acid, liposol maleate: 20% water solution) added to 20 g bleaching powder + 40 g Activator 40 vol.; 50 minutes; On Protection = 13% maleic acid and 7% Liposol maleate; five measurements, 6 cm hair, 0.5 mm/sec
Method: Five swatches of hair, weight and length standard, level 5, are treated with the coloration Davines Mask With Vibrachrom 4.0 mixed with the activator Davines Activator 20 vol., emulsion containing hydrogen peroxide, in a ratio of 1:1.5 as disclosed in the Davines manual and left on at room temperature for 35 minutes in a ratio of 1:1.5 as disclosed in the Davines manual.
During the left on period, the swatches were wrapped up in tinfoil and left at room temperature. After that, the swatches were rinsed with abundant running water and then washed with the Essential Hair Care SOLU shampoo of Davines line, washed and carefully dried with an airdryer.
At the end of the coloring process, the bleaching treatment starts.
Every swatch is decolored with 20 g of the bleaching powder Davines Mask Hair Bleaching Powder mixed with 40 g Davines Activator 40 vol.
Before application on the swatches, the mixtures are singularly added with the following solutions:
9 g Liposol maleate (Sabinsa Corporation)—20% water solution,
9 g Olaplex® Bond Multiplier No 1,
During the bleaching process, all the swatches are wrapped up in tinfoil, and left on for 50 minutes at room temperature.
After the left on period, the swatches are shampooed using Davines Hair Care DEDE shampoo and combed using a large-tooth comb.
A tensile strength test was carried out on all single swatches. […]

Water solubility = assay type: physicochemical

Row | SMILES | silkiness, smoothness and compactness of the swatches (sensorial analysis, ranking) [1] | softness and silkiness (ranking by skilled technicians) [2] | limpidity / color intensity of the rinsing water (ranking) [3] | chromatic differences / color retention [4] | Tensile Strength N ([5]; 3.5 g 12% in water added to 20 g bleaching powder + 40 g Activator 20 vol., On Protection = 12% Liposol maleate + 8% maleic acid, five measurements, 6 cm hair, 0.5 mm/sec) [N] | resistance to hair breakage in comparison to other treatments (in words) ([5]; 3.5 g 12% in water added to bleaching mixture) | maintenance of the deviousness of the curls after repeated washings (ranking by skilled personnel) [6] | Tensile Strength N ([7]; 2.5 g as neutralizing solution after perm (maleic acid, liposol maleate 2%; Olaplex, On Protection 12% liposol maleate/8% maleic acid 10% water solution), 2 x 7.30 minutes, 40 washings) [N] | protection of the swatches (conclusion in words) ([7]; in comparison with Olaplex® Bond Multiplier No 1 and Davines Bouclè Biowaving System Extra Delicate Neutralizer) | color retention after the reducing treatment (evaluated by skilled technicians) [8] | Tensile Strength N [9] [N] | solubility in water (Water solubility)
1 | CN(C)CCNC(=O)CCCCC1CCSS1.O=C(O)/C=C\C(=O)O (stereo not drawn) [Liposol maleate, 1,2-dithioane-3-pentanamide, N-(2-dimethylamino) ethyl salified with a mole of maleic acid] | better in relation to compactness, silkiness and smoothness | regard as preferred | third | do not present significant chromatic differences | 1.06 ± 0.13 | clearly show an improvement | maintain the deviousness of the curls in a lower degree | 1.04 ± 0.16 | more protected | more intensive and vibrating | 0.98 ± 0.11 | 
2 | O=C(O)/C=C\C(=O)O [maleic acid, cis-butendioic acid] |  |  |  |  |  |  |  |  |  |  |  | water soluble
